Reference: patent publication US11332438B2, “Creatine prodrugs, compositions and methods of use thereof” (Ultragenyx Pharmaceutical Inc., priority 2017, dated 2022)
“Also recorded” adds a separate entry of the source.

Experiments:
[1] = In vivo IV dosing in CrT KO mice: prodrug, d3-Cr and d3-Crn in brain (Table 5); conditions: for AUClast prodrug in the brain: BQL prodrug = 41.2 ng/mL
Description: A creatine prodrug is administered as an intravenous bolus injection to groups of three to six adult male CD1 mice at an appropriate creatine prodrug dose equivalent per kg body weight. Animals are conscious at the time of the experiment. Blood samples (0.3 mL) are obtained via a jugular vein cannula at intervals over 8 hours following IV dosing. Blood is processed into plasma, then the plasmais immediately frozen at −80° C. until analyzed by LC-MS/MS. Samples may also be taken form the CSF or other appropriate biological fluid. Brains were collected and flash frozen immediately in liquid nitrogen. Brains were homogenized in 100 mM KPI buffer with a cocktail of anti-proteases on the same day as the sample preparation required for LC-MS/MS analysis.
Several prodrugs with either free COOH group and ester linkage and macrocycles were selected for IV dosing in animal study to assess PK and d3-Cr release in brain in vivo. Prodrugs were IV dosed in CrT KO mice at 10, 15, or 25 mg/kg in animal studies. Mouse brain homogenates (MBH) were prepared from brains collected from mice after dosing. Levels of prodrug, d3-Cr and d3-Crn were quantified in brain and expressed in brain concentration (for macrocycle prodrugs) or AUC (for linear prodrugs) over time. Very few prodrugs were detected in MBH.

[2] = Plasma stability, human plasma; assay type: in vitro ADME; conditions: Table 2A, 37 °C, read-out: Plasma Stability Human t1/2
In short: (§1)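 Half-life (min) from LC-MS/MS of acetonitrile-quenched samples taken at t=0, 2, 5, 15, 30 min. Compound dosed at 1 µM final into plasma pre-warmed to 37 °C, pH set to 7.4 where required; incubations at 37 °C.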

[3] = Plasma stability, mouse plasma; assay type: in vitro ADME; conditions: Table 2A, 37 °C, read-out: Plasma Stability Mouse t1/2
In short: as §1

[4] = Liver microsome stability, human; assay type: in vitro ADME; conditions: liver microsomes, pH 7.4, Table 2A, read-out: Microsome Stability Human t1/2
In short: (§2)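 Remaining compound measured by LC/MS after acetonitrile/internal-standard quench at 0–60 min time points (0, 5, 10, 20, 30, 60). Incubations used mouse or human liver microsomes in pH 7.4 potassium phosphate/EDTA buffer with NADPH; a 60-min sample without NADPH served as control.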

[5] = Liver microsome stability, mouse; assay type: in vitro ADME; conditions: liver microsomes, pH 7.4, Table 2A, read-out: Microsome Stability Mouse t1/2
In short: as §2

[6] = Chemical stability in phosphate buffered saline (PBS); assay type: physicochemical; conditions: Table 2A, 50 μM prodrug
In short: (§3)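 Incubations used 50 μM compound at 37 °C in phosphate buffered saline, fasted simulated intestinal fluid without pancreatin, or fasted simulated gastric fluid without pepsin.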

[7] = Chemical stability in simulated gastric fluid (SGF) without pepsin; assay type: physicochemical; conditions: Table 2A, 50 μM prodrug
In short: as §3

ARPE-19 cells = assay: Creatine prodrug uptake and d3-creatine release in ARPE-19 cells (Table 4A); assay type: cell-based, human; conditions: 50 μM, 6 h, cytosol fraction, corrected for total protein
Description: At the end of the incubation, supernatant will be collected from each well to assess prodrug recovery. Cells are then washed 3× with PBS. Plates, prodrugs in supernatant, prodrugs in serum-free medium are stored at −80° C. until harvest (within 5 days). On the day of extraction, 130 uL of lysis buffer (10 mM Tris pH 7.4) with EDTA-free protease inhibitors is added to each well and cells are removed using a cell scraper. Lysates are further homogenized using a handheld pestle and then centrifuged at 16,000 g, […], for 10 minutes to collect cytosol fraction. Pellets will be stored at −80° C. until further analysis. A 4× volume of stop solution (80% ACN/20% water) will be added to the cytosol fraction, supernatant and medium. Samples will be centrifuged at 15,890 g (13,000 rpm) at 4° C. for 10 mins. Supernatant will be collected and stored at −80° C. within 5 days prior to LC-MS/MS analysis. Dosing solutions for each prodrug (10 μM) will be assayed to verify concentration. Cells alone with vehicle will serve as controls to assess background signal for LC-MS/MS. Two independent runs of experiment will be conducted.
Nine fatty acid amide creatine prodrugs were tested in human ARPE-19 cells to assess prodrug uptake and d3-Cr release inside the cells. 50 μM of prodrug was incubated in culture medium with the cells and the cells were harvested at 6 h. Quantitation of prodrugs, d3-Cr (d3-creatine) and d3-Cm (d3-creatinine) in the cytosol fraction was corrected for total protein concentration.

[8] = Prodrug cleavage in human brain homogenates (HBH): d3-Cr release and d3-Crn cyclization; assay type: in vitro ADME; conditions: for Prodrug Cleavage Human BH d3-Crn release / Prodrug Cleavage Human BH net d3-Cr release: 200 μM prodrug, 3 h, % of nominal input; for Prodrug Cleavage Human BH net d3-Cr release: negative control subtracted
Description: For assessment of the ability of prodrugs to release creatine, and to release creatine preferentially to unwanted cyclization to creatinine, d3-labeled (deuterium labeled methyl group) prodrugs are incubated with brain homogenates (e.g., mouse, human) specially prepared to preserve FAAH activity or with rFAAH for direct cleavage study. The use of d3-labelled prodrugs is essential in order to distinguish prodrug-derived creatine (d3-creatine) from high concentrations of endogenous (non-labeled) creatine. […] Prodrugs are tested at final concentrations of 20 μM and 200 μM. Approximately 3-4 mg of homogenate is used for each reaction. Co-factor (NADPH) is included at a final concentration of 1 mM. FAAH activity is confirmed by conversion of 7-amino-4-methyl Coumarin-Arachidonamide to 7-amino-4-methyl Coumarin by fluorescent assay. Negative controls include incubations without brain homogenate/rFAAH (but with NADPH) or 65° C. heat inactivated brain homogenate/rFAAH to assess non-enzymatic prodrug cleavage under the conditions of the assay and FAAH inhibitor […] at the concentration of 1 μM. Prodrug incubations are prepared by addition of 8 μL of prodrug stock solution (500 or 5000 μM in DMSO or DMSO/methanol) to assay buffered, followed by addition of brain homogenate/rFAAH. […] The samples are centrifuged at 15890×g for 10 minutes at 4° C., followed by transfer of the supernatants for storage at −20° C. pending LC-MS/MS analysis. Sample supernatants are analyzed by LC-MS/MS for determination of d3-prodrug, d3-creatine and d3-creatinine levels.
Deuterated creatine prodrugs were tested in 3 different in vitro assays to assess d3-creatine (d3-Cr) release and cyclization to form d3-creatinine (d3-Crn). These assays were 1) direct cleavage with recombinant human FAAH enzyme (rFAAH), 2) cleavage in mouse brain homogenates (MBH), and 3) human brain homogenates (HBH).
Creatine prodrug cleavage efficiency was determined by percentage of net d3-Cr release in μM (positive reaction subtracted from negative control of no brain homogenate/rFAAH or inactivated brain homogenate/rFAAH) over nominal input concentration of 200 μM prodrug at 3 h. Propensity for creatinine cyclization was determined by percentage of d3-Crn generated in μM in positive reaction over nominal input concentration of 200 μM prodrug at 3 h.

[9] = IV 10 mg/kg, CrT KO mouse brain
[10] = in vitro cleavage assays (Table 3A)

| AUClast prodrug in the brain [1, 9] | half-life [2] [h] | half-life [3] [h] | half-life at 10 μM [4] [h] | half-life at 10 μM [5] [h] | Chemical Stability PBS % T0 at 2 hours at 37 °C. [6] [%] | Chemical Stability SGF, no enzyme % T0 at 2 hours at 37 °C. [7] [%] | prodrug, Cellular Uptake (ARPE-19 cells) | SMILES | further results |
| --- | --- | --- | --- | --- | --- | --- | --- | --- | --- |
|  | > 3 | 2.7 | 1.57 | > 2.42 | 145 | 62 | 29.2 nmol/mg protien | [2H]C([2H])([2H])N(CC(=O)O)C(=N)NC(=O)CCCCCCCCCCC [Compound 30] |  |
| BQL | 0.0833 | < 0.0833 | < 0.0833 | < 0.0833 | 23 | 73 | BQL | Cl.[2H]C([2H])([2H])N(CC(=O)OCCCCCCC)C(=N)NC(=O)CCCCCCCCCC [Compound 5, Heptyl N-(methyl-d3)-N—(N-undecanoylcarbamimidoyl)glycinate Hydrochloride] |  |
|  | > 3 | > 3 | > 2.42 | > 2.42 | 101 | 78 | BQL | [2H]C([2H])([2H])N(CC(=O)[O-])C(=N)NC(=O)c1cccnc1.[Na+] [Compound 20] | d3-Cr, Cellular Uptake (ARPE-19 cells): BQL; d3-Crn, Cellular Uptake (ARPE-19 cells): BQL |
| BQL |  |  |  |  |  |  |  | [2H]C([2H])([2H])N(CC(=O)OC(C)C)C(=N)NC(=O)CCCCCCCCCC [Compound 12] |  |
|  | > 3 | > 3 | 2.22 | 1.38 | 76 | 74 | 24.8 nmol/mg protien | [2H]C([2H])([2H])N(CC(=O)[O-])C(=N)NC(=O)CCCCCCC/C=C\CCCCCCCC.[Na+] [Compound 1, Sodium N-(methyl-d3)-N—(N-oleoylcarbamimidoyl)glycinate] |  |
| BQL | > 3 | > 3 | 10.8 | 15.2 | 97 | 94 |  | [2H]C([2H])([2H])N(CC(=O)[O-])C(=N)NC(=O)CCCCCC.[Na+] [Compound 13] | crossing of BBB (in words) ([1]; CrT KO mice, IV dosing): did not seem to cross BBB; AUClast d3-Cr in the brain ([1]; IV 10 mg/kg, CrT KO mouse brain, BQL d3-Cr = 13.7 ng/mL): BQL; AUClast d3-Crn in the brain ([1]; IV 10 mg/kg, CrT KO mouse brain, BQL d3-Crn = 1.5 ng/mL): BQL |
|  |  |  |  |  | 99 | 117 |  | Cl.[2H]C([2H])([2H])N(CC(=O)OC(C)C)C(=N)NC(=O)CCCCCCCCCC [Compound 12-HCl] | Prodrug Cleavage Human BH d3-Crn release [8]: 265.7%; Prodrug Cleavage Human BH net d3-Cr release [8]: 2.9%; d3-Cr release in vitro (in words) [8, 10]: small amount of d3-Cr; d3-Crn (creatinine) cyclization in vitro (in words) [8, 10]: predominantly cyclized into creatinine; also recorded: predominantly creatinine cyclization; d3-Cr/d3-Crn release ratio in vivo (in words) ([1]; brain, CrT KO mice): favorable d3-Cr/d3-Crn ratio |
|  |  |  |  |  | 62 | 103 |  | Cl.[2H]C([2H])([2H])N(CC(=O)OCC(C)(C)C)C(=N)NC(=O)CCCCCCCCCC [Compound 39] | Prodrug Cleavage Human BH d3-Crn release [8]: 166.5%; Prodrug Cleavage Human BH net d3-Cr release [8]: 6.4% |

| SMILES | AUClast prodrug in the brain [1, 9] | half-life [2] [h] | half-life [3] [h] | half-life at 10 μM [4] [h] | half-life at 10 μM [5] [h] | Chemical Stability PBS % T0 at 2 hours at 37 °C. [6] [%] | Chemical Stability SGF, no enzyme % T0 at 2 hours at 37 °C. [7] [%] | prodrug, Cellular Uptake (ARPE-19 cells) | further results |
| --- | --- | --- | --- | --- | --- | --- | --- | --- | --- |
| [2H]C([2H])([2H])N(CC(=O)OC(C)C)C(=N)NC(=O)CCCCCCCCCCCC [Compound 10] | BQL |  |  |  |  |  |  |  |  |
